According to patent publication US20090298887A1, “METHOD FOR IMPROVING HARVESTED SEED QUALITY” (Syngenta Corp Protection, Inc., priority 2004, published 2009):

What was measured:
soybean plants [1] = experiment: Warm germination test of seeds harvested from treated soybean plants; assay type: in vivo
Text: A preferred test of seed germination is a warm germination test because it is used for labeling purposes. Germination is defined as: “the emergence and development from the seed embryo of those essential structures which are indicative of the ability to produce a normal plant under favorable conditions.” The warm germination test reflects the stand producing potential of a seed lot under ideal planting conditions. In a typical warm germination test, 400 seeds from each seed lot are placed under moist conditions on blotters, rolled towels, or sand and maintained at 77° F. for about seven days. At the end of this period the seedlings are categorized as normal, abnormal, or diseased, and dead or hard seeds. The percentage germination is calculated from the number of normal seedlings from the total number of seeds evaluated.
(§1) In the method of the present invention, seeds harvested from plants treated with a foliar insecticide, or seeds harvested from plants whose pre-planted seeds were treated with a seed treatment insecticide, or seeds harvested from plants that underwent both treatments, both as the pre-planted seed (seed treatment) and as the post emergent plant (foliar insecticide treatment) were tested in warm germination and accelerated aging tests to determine the health and quality of the harvested seeds. In accordance with the germination tests, it was discovered that seed-producing plants resulting from the growers' application of insecticides at the seed stage, the foliar stage, and both, not only were healthier plants, but they also produced healthier seeds.
(§2) Germination studies were conducted on soybean plants comparing plants treated with a combination of fungicides with plants (1) wherein only insecticidal seed treatment was applied; (2) wherein insecticidal seed treatment was applied followed by foliar insecticidal treatment on the resulting plant; and (3) wherein only foliar insecticide was applied to a plant grown from untreated seed.

soybean plants [2] = experiment: Accelerated aging test of seeds harvested from treated soybean plants; assay type: in vivo
Description: Another germination test, the accelerated aging test (AA), estimates the carryover potential of a seed lot in warehouse storage. The seeds are exposed to high temperatures and high relative humidity for short periods of time that cause seed deterioration. Seeds are suspended over water in a chamber for a period of time, for example 72 hours (wheat and soybeans) or 96 hours (corn), then tested in a standard warm germination test. This test only is usually used on seed whose longevity was in question.
as §1, §2

[3] = foliar insecticide only (2 applications), untreated seed
[4] = insecticidal seed treatment only, 30 g
[5] = insecticidal seed treatment only, 50 g

Structure (SMILES) | Warm Germination (+/−Std. Error) (soybean plants [1]; [3]) | Warm Germination (+/−Std. Error) (soybean plants [1]; foliar insecticide only (8/8)) | Warm Germination (+/−Std. Error) (soybean plants [1]; foliar insecticide only (8/12)) | Accelerated Aging (+/−Std. Error) (soybean plants [2]; [3]) | Accelerated Aging (+/−Std. Error) (soybean plants [2]; foliar insecticide only (8/8)) | Accelerated Aging (+/−Std. Error) (soybean plants [2]; foliar insecticide only (8/12)) | Warm Germination (+/−Std. Error) (soybean plants [1]; [4]) | Warm Germination (+/−Std. Error) (soybean plants [1]; [5]) | Accelerated Aging (+/−Std. Error) (soybean plants [2]; [4]) | Accelerated Aging (+/−Std. Error) (soybean plants [2]; [5])
CC1(C)[C@H](C(=O)O[C@H](C#N)c2cccc(Oc3ccccc3)c2)[C@@H]1/C=C(\Cl)C(F)(F)F (racemic) [lambda cyhalothrin] | 92.5 (0.70) | 92.9 (0.81) | 91.1 (0.81) | 89.3 (1.06) | 89.7 (1.23) | 86.5 (1.23) | – | – | – | –
CN1COCN(Cc2cnc(Cl)s2)/C1=N\[N+](=O)[O-] [Thiamethoxam, thiamethoxam] | – | – | – | – | – | – | 91.4 (0.63) | 91.6 (0.65) | 86.7 (0.95) | 90.4 (0.98)
